Source: patent US3948899A, “α-Cyanobenzylpiperazines and a process for producing the same” (Fuji Chemical Industry Co., Ltd., priority 1973, dated 1976)

What was measured:
mongrel adult dogs [1] = test: Effects on heart rate (thoractomized anesthetized dogs, i.v.); assay type: in vivo, dog
Method: (§1) All experiments were conducted on male and female thoractomized mongrel adult dogs weighing about 10 Kg under anesthesia with pentobarbital sodium.
(§2) Arterial blood pressure was measured by pressure transducer (Nippon Koden MPU-0.5) connected with the cannula inserted from exposed carotid artery into aorta. Aortic blood flow was determined by means of electromagnetic flow meter (Nippon Koden MF-5) mounted at an origin of aorta. Coronary sinus out flow and coronary sinus oxygen tension were assessed by means of electromagnetic flow meter (Nippon Koden MF-5) and Po2 Macro electrode (Beckmann Moder 160-C), respectively, using Morawitz cannulization technique. Heart rate was measured by cardiotachometer (Nippon Koden RT-2) synchronized with systolic blood pressure of aorta.

mongrel adult dogs [2] = test: Effects on arterial mean blood pressure (thoractomized anesthetized dogs, i.v.); assay type: in vivo, dog
Method: as §1, §2

mongrel adult dogs [3] = test: Effects on coronary sinus out flow (thoractomized anesthetized dogs, i.v.); assay type: in vivo, dog
Method: as §1, §2

mongrel adult dogs [4] = test: Effects on the work done by the left ventricle (thoractomized anesthetized dogs, i.v.); assay type: in vivo, dog
Method: as §1, §2
The work done by the left ventricle is calculated according to the following equation: […]

mongrel adult dogs [5] = test: Effects on coronary sinus oxygen tension (thoractomized anesthetized dogs, i.v.); assay type: in vivo, dog
Method: as §1, §2

dd-0train male mice = test: Acute toxicity (LD50; per os, mice); assay type: in vivo
Method: (§3) 7. Acute Toxicity (See Table 7) Acute toxicity (LD50; per os, mice) was measured in dd-0train male mice.

[6] = Acute toxicity (LD50; per os, mice); assay type: in vivo; details: mouse, in vivo, po, dd-0train male mice
Method: as §3

mongrel adult dogs [7] = test: Effects on aortic blood flow (thoractomized anesthetized dogs, i.v.); assay type: in vivo, dog
Method: as §1, §2

CCOC(=O)N1CCN(C(C#N)c2ccc(OC)c(OC)c2)CC1 (stereo not drawn) [Compound B-01, N-(α-cyano-3,4-dimethoxybenzyl)-N'-ethoxycarbonyl piperazine]
Changes(%) of basal values, heart rate (mongrel adult dogs [1]; i.v. 2.0 mg/Kg, 15 min): 0% | Changes(%) of basal values, heart rate (mongrel adult dogs [1]; i.v. 2.0 mg/Kg, 25 min): 0% | Changes(%) of basal values, heart rate (mongrel adult dogs [1]; i.v. 6.0 mg/Kg, 15 min): +0.6% | Changes(%) of basal values, heart rate (mongrel adult dogs [1]; i.v. 6.0 mg/Kg, 25 min): +1.0% | Changes(%) of basal values, heart rate (mongrel adult dogs [1]; i.v. 20.0 mg/Kg, 15 min): -2.6% | Changes(%) of basal values, heart rate (mongrel adult dogs [1]; i.v. 20.0 mg/Kg, 25 min): -6.3% | Effect on heart rate (in words) (mongrel adult dogs [1]; i.v., dogs): sight negative chromotropic effect | Changes(%) of basal values, arterial mean blood pressure (mongrel adult dogs [2]; i.v. 2.0 mg/Kg, 15 min): -4.5% | Changes(%) of basal values, arterial mean blood pressure (mongrel adult dogs [2]; i.v. 2.0 mg/Kg, 25 min): -4.0% | Changes(%) of basal values, arterial mean blood pressure (mongrel adult dogs [2]; i.v. 6.0 mg/Kg, 15 min): -6.3% | Changes(%) of basal values, arterial mean blood pressure (mongrel adult dogs [2]; i.v. 6.0 mg/Kg, 25 min): -3.0% | Changes(%) of basal values, arterial mean blood pressure (mongrel adult dogs [2]; i.v. 20.0 mg/Kg, 15 min): -17.7% | Changes(%) of basal values, arterial mean blood pressure (mongrel adult dogs [2]; i.v. 20.0 mg/Kg, 25 min): -17.4% | Duration of hypotensive effect (in words) (mongrel adult dogs [2]; i.v., dogs): longer duration | Effect on arterial mean blood pressure (in words) (mongrel adult dogs [2]; i.v., dogs): hypotensive effects | Changes(%) of basal values, coronery sinus out flow (mongrel adult dogs [3]; i.v. 2.0 mg/Kg, 15 min): +4.4% | Changes(%) of basal values, coronery sinus out flow (mongrel adult dogs [3]; i.v. 2.0 mg/Kg, 25 min): +3.0% | Changes(%) of basal values, coronery sinus out flow (mongrel adult dogs [3]; i.v. 6.0 mg/Kg, 15 min): +10.9% | Changes(%) of basal values, coronery sinus out flow (mongrel adult dogs [3]; i.v. 6.0 mg/Kg, 25 min): +8.0% | Changes(%) of basal values, coronery sinus out flow (mongrel adult dogs [3]; i.v. 20.0 mg/Kg, 15 min): +38.2% | Changes(%) of basal values, coronery sinus out flow (mongrel adult dogs [3]; i.v. 20.0 mg/Kg, 25 min): +20.3% | Dose dependence and duration of effect on coronary sinus out flow (in words) (mongrel adult dogs [3]; i.v., dogs): proportioned to doses and of longer duration | Effect on coronary sinus out flow (in words) (mongrel adult dogs [3]; i.v., dogs): marked increasing effect on coronary sinus out flow | Changes(%) of basal values, work of left ventricle (mongrel adult dogs [4]; i.v. 2.0 mg/Kg, 1 min): +2.7% | Changes(%) of basal values, work of left ventricle (mongrel adult dogs [4]; i.v. 2.0 mg/Kg, 5 min): +0.8% | Changes(%) of basal values, work of left ventricle (mongrel adult dogs [4]; i.v. 2.0 mg/Kg, 10 min): -2.0% | Changes(%) of basal values, work of left ventricle (mongrel adult dogs [4]; i.v. 2.0 mg/Kg, 15 min): -2.6% | Changes(%) of basal values, work of left ventricle (mongrel adult dogs [4]; i.v. 2.0 mg/Kg, 20 min): -2.9% | Changes(%) of basal values, work of left ventricle (mongrel adult dogs [4]; i.v. 2.0 mg/Kg, 25 min): -3.1% | Changes(%) of basal values, work of left ventricle (mongrel adult dogs [4]; i.v. 2.0 mg/Kg, 30 min): -3.6% | Changes(%) of basal values, work of left ventricle (mongrel adult dogs [4]; i.v. 2.0 mg/Kg, imm.): -3.6% | Changes(%) of basal values, work of left ventricle (mongrel adult dogs [4]; i.v. 6.0 mg/Kg, 1 min): +2.3% | Changes(%) of basal values, work of left ventricle (mongrel adult dogs [4]; i.v. 6.0 mg/Kg, 5 min): -1.7% | Changes(%) of basal values, work of left ventricle (mongrel adult dogs [4]; i.v. 6.0 mg/Kg, 10 min): -5.9% | Changes(%) of basal values, work of left ventricle (mongrel adult dogs [4]; i.v. 6.0 mg/Kg, 15 min): -8.3% | Changes(%) of basal values, work of left ventricle (mongrel adult dogs [4]; i.v. 6.0 mg/Kg, 20 min): -5.3% | Changes(%) of basal values, work of left ventricle (mongrel adult dogs [4]; i.v. 6.0 mg/Kg, 25 min): -2.0% | Changes(%) of basal values, work of left ventricle (mongrel adult dogs [4]; i.v. 6.0 mg/Kg, 30 min): -2.8% | Changes(%) of basal values, work of left ventricle (mongrel adult dogs [4]; i.v. 6.0 mg/Kg, imm.): -0.1% | Changes(%) of basal values, work of left ventricle (mongrel adult dogs [4]; i.v. 20.0 mg/Kg, 1 min): -10.9% | Changes(%) of basal values, work of left ventricle (mongrel adult dogs [4]; i.v. 20.0 mg/Kg, 5 min): -8.4% | Changes(%) of basal values, work of left ventricle (mongrel adult dogs [4]; i.v. 20.0 mg/Kg, 10 min): -9.2% | Changes(%) of basal values, work of left ventricle (mongrel adult dogs [4]; i.v. 20.0 mg/Kg, 15 min): -14.8% | Changes(%) of basal values, work of left ventricle (mongrel adult dogs [4]; i.v. 20.0 mg/Kg, 20 min): -14.3% | Changes(%) of basal values, work of left ventricle (mongrel adult dogs [4]; i.v. 20.0 mg/Kg, 25 min): -16.1% | Changes(%) of basal values, work of left ventricle (mongrel adult dogs [4]; i.v. 20.0 mg/Kg, 30 min): -14.1% | Changes(%) of basal values, work of left ventricle (mongrel adult dogs [4]; i.v. 20.0 mg/Kg, imm.): -8.5% | Duration of effect on the work of the left ventricle (in words) (mongrel adult dogs [4]; i.v., dogs): longer duration | Effect on the work of the left ventricle (in words) (mongrel adult dogs [4]; i.v., dogs): decrease in the work of the left ventricle | Changes(%) of basal values, coronary sinus oxygen tension (mongrel adult dogs [5]; i.v. 2.0 mg/Kg, 15 min): +12.0% | Changes(%) of basal values, coronary sinus oxygen tension (mongrel adult dogs [5]; i.v. 2.0 mg/Kg, 25 min): +12.5% | Changes(%) of basal values, coronary sinus oxygen tension (mongrel adult dogs [5]; i.v. 6.0 mg/Kg, 10 min): +3.0% | Changes(%) of basal values, coronary sinus oxygen tension (mongrel adult dogs [5]; i.v. 6.0 mg/Kg, 15 min): +25.5% | Changes(%) of basal values, coronary sinus oxygen tension (mongrel adult dogs [5]; i.v. 6.0 mg/Kg, 25 min): +16.2% | Changes(%) of basal values, coronary sinus oxygen tension (mongrel adult dogs [5]; i.v. 20.0 mg/Kg, 5 min): +89.0% | Changes(%) of basal values, coronary sinus oxygen tension (mongrel adult dogs [5]; i.v. 20.0 mg/Kg, 15 min): +90.1% | Changes(%) of basal values, coronary sinus oxygen tension (mongrel adult dogs [5]; i.v. 20.0 mg/Kg, 25 min): +63.0% | Duration of effect on coronary sinus oxygen tension (in words) (mongrel adult dogs [5]; i.v., dogs): proportioned to an increase in coronary sinus out flow and of longer duration | Effect on coronary sinus oxygen tension (in words) (mongrel adult dogs [5]; i.v., dogs): significant increase in coronary sinus oxygen tension | LD50 (dd-0train male mice; dd-0train male mice): 2200 mg/kg | Acute toxicity relative to Vastarel F (in words) (dd-0train male mice; mice): significantly less toxicity than that of Vastarel F | LD50 [6]: 2200 mg/kg | Changes(%) of basal values, aortic blood flow (mongrel adult dogs [7]; i.v. 2.0 mg/Kg, 15 min): +2.0% | Changes(%) of basal values, aortic blood flow (mongrel adult dogs [7]; i.v. 2.0 mg/Kg, 25 min): +1.0% | Changes(%) of basal values, aortic blood flow (mongrel adult dogs [7]; i.v. 6.0 mg/Kg, 15 min): +0.1% | Changes(%) of basal values, aortic blood flow (mongrel adult dogs [7]; i.v. 6.0 mg/Kg, 25 min): +1.0% | Changes(%) of basal values, aortic blood flow (mongrel adult dogs [7]; i.v. 20.0 mg/Kg, 15 min): +3.6% | Changes(%) of basal values, aortic blood flow (mongrel adult dogs [7]; i.v. 20.0 mg/Kg, 25 min): +1.6% | Increase of aortic blood flow (mongrel adult dogs [7]; i.v., dogs): 2-8% | Later effect on aortic blood flow / its duration (in words) (mongrel adult dogs [7]; i.v., dogs): longer duration | Effect on aortic blood flow immediately after administration (in words) (mongrel adult dogs [7]; i.v., dogs, immediately): no decrease in blood flow immediately after medication
